Read-outs that look alike come from different tables or passages of the source.
Tests used:
LoVo cell line = assay: Intracellular ROS level (DCFH-DA), LoVo cells; format: cell-based; conditions: Homo sapiens, 4 h, compound 100 μM
Description: (§1) Two cell lines were chosen for investigations: V79 (Chinese hamster lung fibroblasts) and LoVo. V79 normal cells are widely used as the cell line tested in the studies of the oxidative stress. These cells are a living system model to explain the mechanism of ROS effects caused by varied compounds [73].
(§2) First, the tested compounds (in concentration of 100 μM) were added to the cell cultures and cells were incubated for 4 h. Then cells were washed and incubated with DCFH-DA (non-fluorescent probe) in dark at 37 °C for 2 h at CO2 [79]. Non-fluorescent, non-polar DCFH-DA (2′7′-dichlorodihydrofluorescein diacetate) at concentration of 25 μM was used as a marker of oxidative stress to determine the intracellular ROS levels. […] In this time, DCFH-DA which penetrated into the cells, was hydrolyzed by esterases to polar, non-fluorescent DCFH (2′7′-dichlorodihydrofluorescein) and then oxidized in the presence of ROS (reactive oxygen species) to fluorescent DCF (2′7′-dichlorofluorescein). DCF was measured using Varioscan LUX microplate reader (Thermo Fisher Scientific, Waltham, MA, USA) at λex = 485 nm and λem = 535 nm.
(§3) E is the culture with the tested compound and E0 is the negative control without the compound. The routine statistical methods: two-way analysis of variance ANOVA as well as Tukey’s post-hoc test were used. It allowed us to determine the statistical significance of results, where p < 0.05 was set as significant. The statistical indicators were estimated using Statistica 13.3 software.

V79 cell line = assay: Intracellular ROS level (DCFH-DA), V79 cells; format: cell-based, Chinese hamster; conditions: Cricetulus griseus, 4 h, V79, compound 100 μM
Description: as §1
as §2, with “nm. Then results were presented as E/E0 where E is test sample value and E0—control value.” for “nm.”
as §3, with “[…] E is” for “E is”

[1] = tested on: LoVo/Dx (drug resistant subline of LoVo); assay: MTT assay, LoVo/Dx; format: cell-based; conditions: Homo sapiens, 48 h incubation, read-out: IC50 [µM] ± SD LoVo/Dx
Description: (§4) The MTT (3-[4,5-dimethylthiazol-2-yl]-2,5-diphenyl tetrazolium bromide) assay was used to determine the cytotoxicity of tested compounds towards different cell lines: normal human dermal fibroblasts (NHDF), kidney epithelial cells (VERO), fibroblasts from Chinese hamster lung (V79) and four human cancer cells: A549 (pulmonary basal cell alveolar adenocarcinoma), MCF-7 (breast adenocarcinoma), LoVo (colon adenocarcinoma), and its drug resistant subline LoVo/Dx. The cell lines used in this study express COX-1 and COX-2. The LoVo line expressed COX-1, the LoVo/Dx subline express both COX-1 and COX-2 [61].
Each cell line was grown in the culture media recommended by supplier. Before the test they were detached with trypsin/EDTA solution, then to neutralize the effect of Trypsin/EDTA solution, FBS containing medium was used. After centrifugation the cells were stained with 0.4% solution of trypan blue, counted and inspected for viability using microscope. […] The number of cells was 2 × 10^3 cells per well. The tested compounds with different concentrations (5, 10, 20, 50, 100 µM) were dissolved in DMSO and then added to the cells (the final DMSO concentration was 0.1%). The cultures were incubated for another 48 h. After that time the cells were collected to be used in tests.
MTT assay was used to find out how tested compounds influence the metabolic activity of investigated cell lines. The cells were incubated with tested compounds. […] The medium was removed again, and formazan crystals were dissolved in isopropanol.

[2] = tested on: V79 (fibroblasts from Chinese hamster lung); assay: MTT assay, V79; format: cell-based; conditions: Cricetulus griseus, Fibroblast, 48 h incubation, read-out: IC50 [µM] ± SD V79
Description: as §4
(§5) Each cell line was grown in the culture media recommended by supplier. Before the test they were detached with trypsin/EDTA solution, then to neutralize the effect of Trypsin/EDTA solution, FBS containing medium was used. After centrifugation the cells were stained with 0.4% solution of trypan blue, counted and inspected for viability using microscope. In the end, cells were inserted into 96-well culture plates and incubated in CO2 incubator (37 °C, 24 h). The number of cells was 2 × 10^3 cells per well. The tested compounds with different concentrations (5, 10, 20, 50, 100 µM) were dissolved in DMSO and then added to the cells (the final DMSO concentration was 0.1%). The cultures were incubated for another 48 h. After that time the cells were collected to be used in tests.
(§6) MTT assay was used to find out how tested compounds influence the metabolic activity of investigated cell lines. The cells were incubated with tested compounds. After removing of supernatant, 1 mg/mL of MTT solution in MEM was added to the plate (to each well) and then the plates were incubated at 37 °C for 2 h. The medium was removed again, and formazan crystals were dissolved in isopropanol. A Varioscan LUX microplate reader (Thermo Fisher Scientific, Waltham, MA, USA) was used to measure absorbance at 570 nm.

[3] = tested on: VERO (kidney epithelial cells); assay: MTT assay, VERO; format: cell-based; conditions: 48 h incubation
Description: as §4, §5, §6

[4] = tested on: NHDF (normal human dermal fibroblasts); assay: MTT assay, NHDF; format: cell-based; conditions: 48 h incubation, read-out: IC50 [µM] ± SD NHDF
Description: as §4, §5, §6

[5] = tested on: A549 (pulmonary basal cell alveolar adenocarcinoma); assay: MTT assay, A549; format: cell-based; conditions: Homo sapiens, 48 h incubation, read-out: IC50 [µM] ± SD A549
Description: as §4, §5, §6

[6] = tested on: LoVo (colon adenocarcinoma); assay: MTT assay, LoVo; format: cell-based; conditions: Homo sapiens, 48 h incubation, read-out: IC50 [µM] ± SD LoVo
Description: as §4, §5, §6

[7] = with H2O2 (100 μM, 30 min), n = 5, read-out: ROS scavenging activity, Mean E/E0 ± SD, with H2O2
[8] = without H2O2, n = 5, read-out: ROS scavenging activity, Mean E/E0 ± SD, without H2O2

Q: Which results are given for `O=C1O[C@H]([C@@H](O)CO)C(O)=C1O` [Ascorbic acid, ascorbic acid, reference compound]?
A: activity at 100 µM (LoVo cell line; [7]): 32 ± 9%; activity at 100 µM (LoVo cell line; [8]): 89 ± 11%; activity at 100 µM (V79 cell line; [7]): 22 ± 12%; activity at 100 µM (V79 cell line; [8]): 83 ± 13%

Q: Which IC50 [1] does the source give for `Cc1cnc(NC(=O)C2=C(O)c3ccccc3S(=O)(=O)N2C)s1` [Meloxicam, meloxicam, reference compound] here?
A: Its IC50 is 142 ± 9.46 µM.

Q: What about the activity at 100 µM (LoVo cell line; [7]) of the same molecule?
A: Its activity at 100 µM is 89 ± 16%.

Q: And the IC50 [2]?
A: The IC50 was 201 ± 17.8 µM.

Q: And the activity at 100 µM (V79 cell line; [7])?
A: Its activity at 100 µM is 85 ± 18%.

Q: What about the activity at 100 µM (V79 cell line; [8]) of the same molecule?
A: Its activity at 100 µM is 115 ± 19%.

Q: And the “IC50 [µM] ± SD VERO” value [3]?
A: Its value is “no toxicity”.

Q: What about the IC50 [4] of the same molecule?
A: The IC50 was 196 ± 35.2 µM.

Q: How did the IC50 [1] turn out when `CN1C(C(=O)Nc2ccccn2)=C(O)c2ccccc2S1(=O)=O` [Piroxicam, piroxicam, reference compound] was run?
A: The IC50 was 126 ± 11.2 µM.

Q: What about the IC50 [5] of the same molecule?
A: Its IC50 is 110 ± 28.2 µM.

Q: And the activity at 100 µM (LoVo cell line; [7])?
A: The activity at 100 µM was 81 ± 19%.

Q: What about the activity at 100 µM (LoVo cell line; [8]) of the same molecule?
A: Its activity at 100 µM is 72 ± 19%.

Q: And the IC50 [2]?
A: The IC50 was 213 ± 23.2 µM.

Q: What about the activity at 100 µM (V79 cell line; [7]) of the same molecule?
A: Its activity at 100 µM is 67 ± 17%.

Q: What about the activity at 100 µM (V79 cell line; [8]) of the same molecule?
A: Its activity at 100 µM is 98 ± 17%.

Q: And the “IC50 [µM] ± SD VERO” value [3]?
A: The value was “no toxicity”.

Q: And the IC50 [6]?
A: The IC50 was 122 ± 10.2 µM.

Q: What about the IC50 [4] of the same molecule?
A: Its IC50 is 162 ± 22.9 µM.

Q: Which results are given for `Cc1c(C)c2c(c(C)c1O)CCC(C)(C(=O)O)O2` (stereo not shown) [Trolox, trolox, reference compound]?
A: activity at 100 µM (LoVo cell line; [7]): 29 ± 15%; activity at 100 µM (LoVo cell line; [8]): 85 ± 13%; activity at 100 µM (V79 cell line; [7]): 15 ± 8%; activity at 100 µM (V79 cell line; [8]): 71 ± 5%

Source: publication PMC8745710, “Biological Evaluation and Molecular Docking Studies of Novel 1,3,4-Oxadiazole Derivatives of 4,6-Dimethyl-2-sulfanylpyridine-3-carboxamide” (International Journal of Molecular Sciences, 2022)
